In patent US11834698B2, “Process for determining enzyme activity in a cell by activity-based reporter gene technology (ABRGT)” (INDIAN INSTITUTE OF SCIENCE EDUCATION AND RESEARCH, priority 2018, dated 2023):
Peptide text beside a SMILES is read from it. * marks the point of attachment. Cbz = O=C(OCc1ccccc1)*; CH2F = FC*

Experiments:
cathepsin B GFPspark = target: T1, cathepsin B GFPspark (Homo sapiens, UniProt P07858); assay: AbRGT FRET imaging / acceptor photobleaching, cathepsin B GFPspark in HEK-293 cells; format: cell-based
T1 construct: GFPspark (C); host or cells: HEK-293
Method: FIG. 20 depicts confocal images of HEK-293 cells in GFP, FRET and Rh channel Cathepsin B GFPspark transfected HEK-293 cells were treated with STS (1 μM) for 4 h and labelled (a) (i) with or (a) (iv) without probe 1. Cells were pre-treated with (a) (ii) Z-VAD-FMK (50 μM) or (a) (iii) E-64 (50 μM) inhibitor 1 h before the probe 1 labelling. (b) Quantification of the change in GFPS fluorescence intensity after rhodamine photobleaching in both unbleached control region and rhodamine bleached region (ROI), using acceptor photo-bleaching method. Error bar represents the s.e.m for n=10 cells (*P<0.00001). Scale bar, 10 μm. a.u., arbitrary units.
Plasmids and transient transfection: GFPspark tagged plasmids; caspase-3 GFPspark tag (Cat: HG10050-ACG), caspase-7 GFPspark tag (HG10049-ACG), caspase-8 GFPspark (HG10078-ACG), caspase-9 GFPspark (HG11151-ACG) and cathepsin B GFPspark (HG10483-ACG) were procured from Sino Biological. For transfection, cells were seeded in a 6-well plate at a density of 0.4 million cells/well. At 60-70% confluency, cells were transiently transfected for 24 h at 37° C. with 1 μg of the GFPspark tagged plasmid DNA construct mixed with 5 μL of Lipofectamine 2000 (Invitrogen) according to the manufacturer's instructions. 24 h post-transfection, cells were visualized under the GFP filter for GFPspark expression under fluorescence microscope at 10× magnification.
Labelling of active caspases in apoptotic cells with FABP: After 24 h of transfection, cells were treated with STS (1 μM) drug or TRAIL (1 μg/ml) for apoptotic induction and incubated for 2, 4, 6 and 8 h at 37° C. in a humidified atmosphere of 5% CO2/95% air. Cells were gently scraped off from the surface at the end of apoptotic induction and centrifuged at 3000 rpm for 5 min. The cell pellet was resuspended in 300 μL of fresh DMEM containing 1 μM of probe for probe 2 and incubated for additional 2 h at 37° C. in a humidified atmosphere of 5% CO2. Cells were again centrifuged at 3000 rpm for 5 mins, and the supernatant was decanted. Cells were washed with 1×PBS, thrice finally resuspended in 20 μL of 1×PBS. The cell suspension was put on a slide, and a coverslip was placed over it. It was left for air drying. Slides were then imaged for GFP, FRET and rhodamine fluorescence signals under confocal microscopy.
Inhibitor assay: Cells were pre-treated with 50 μM of Z-VAD-FMK or Q-VD-OPh or E-64 inhibitor 1 h before probe 1 labelling and incubated for 1 h at 37° C. in a humidified atmosphere of 5% CO2. Cells were gently scraped off from the surface at the end of inhibitor treatment and centrifuged at 3000 rpm for 5 min Cells were then labelled with the probe 1 as described in the previous section.
Fluorescence imaging studies, FRET procedure: Images were collected on Zeiss LSM710 confocal microscope with 25 mW argon laser using Zen10 software. The laser was tuned to lines at 488 nm (excitation laser for GFPspark) and 561 nm (excitation laser for rhodamine) Cells were examined with a 40× 1.3 NA Zeiss oil immersion objective and 2.4× zoom. Images were collected in the three channels; GFP channel, argon laser tuned at 488 nm with 2% laser intensity and fluorescence emission was collected in emission range of 490-550 nm; rhodamine channel, argon laser tuned to 561 nm laser with 2% laser intensity and fluorescence emission was collected in range 550-650 nm and FRET channel with excitation laser of GFPSPARK channel and emission range of rhodamine channel. […]

caspase-9 GFPspark = target: T2, caspase-9 GFPspark (Homo sapiens, UniProt P55211); assay: AbRGT FRET imaging / acceptor photobleaching, caspase-9 GFPspark in HEK-293 cells; format: cell-based
T2 construct: host or cells: MCF-7, HEK-293
T2 sequence (P55211 1-416): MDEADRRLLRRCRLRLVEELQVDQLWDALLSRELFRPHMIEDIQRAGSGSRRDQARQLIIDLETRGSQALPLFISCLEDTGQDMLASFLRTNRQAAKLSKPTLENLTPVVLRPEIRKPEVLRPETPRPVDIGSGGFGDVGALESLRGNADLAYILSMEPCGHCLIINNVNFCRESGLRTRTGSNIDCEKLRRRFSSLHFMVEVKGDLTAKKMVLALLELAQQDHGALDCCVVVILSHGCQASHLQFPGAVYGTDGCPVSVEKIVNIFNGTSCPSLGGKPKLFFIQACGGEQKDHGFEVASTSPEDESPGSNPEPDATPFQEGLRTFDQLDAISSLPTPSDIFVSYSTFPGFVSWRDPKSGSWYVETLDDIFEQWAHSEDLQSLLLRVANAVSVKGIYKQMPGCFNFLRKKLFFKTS
Method: FIGS. 17A and 17B depict specific detection of caspase-9 GFPspark in HEK-293 cells. Casp-9 GFPspark (1 μg) transfected HEK-293 cells were treated with STS (1 μM) for 4 h and labelled with the probe 1 (1 μM) for 2 h. […] The acceptor photobleaching was performed to confirm the FRET signal as described previously. The bar graph representing the rise in GFP intensity in ROI after rhodamine photobleaching was 75 a.u. as compared to the unbleached background, i.e., 10 a.u. FRET efficiency was calculated to be 35±2%.
Plasmids and transient transfection: GFPspark tagged plasmids; caspase-3 GFPspark tag (Cat: HG10050-ACG), caspase-7 GFPspark tag (HG10049-ACG), caspase-8 GFPspark (HG10078-ACG), caspase-9 GFPspark (HG11151-ACG) and cathepsin B GFPspark (HG10483-ACG) were procured from Sino Biological. For transfection, cells were seeded in a 6-well plate at a density of 0.4 million cells/well. […] 24 h post-transfection, cells were visualized under the GFP filter for GFPspark expression under fluorescence microscope at 10× magnification.
Labelling of active caspases in apoptotic cells with FABP: After 24 h of transfection, cells were treated with STS (1 μM) drug or TRAIL (1 μg/ml) for apoptotic induction and incubated for 2, 4, 6 and 8 h at 37° C. in a humidified atmosphere of 5% CO2/95% air. […] Slides were then imaged for GFP, FRET and rhodamine fluorescence signals under confocal microscopy. […]
Fluorescence imaging studies, FRET procedure: Images were collected on Zeiss LSM710 confocal microscope with 25 mW argon laser using Zen10 software. […] Images were collected in the three channels; GFP channel, argon laser tuned at 488 nm with 2% laser intensity and fluorescence emission was collected in emission range of 490-550 nm; rhodamine channel, argon laser tuned to 561 nm laser with 2% laser intensity and fluorescence emission was collected in range 550-650 nm and FRET channel with excitation laser of GFPSPARK channel and emission range of rhodamine channel. […]

[1] = HEK-293, inhibitor 50 μM 1 h before probe 1 labelling, STS 4 h
[2] = HEK-293, STS 1 μM 4 h, probe 1 μM 2 h

Compound | effect of inhibitor on FRET signal (cathepsin B GFPspark; [1]) | signal in Rh channel in presence of inhibitor (cathepsin B GFPspark; [1]) | effect of inhibitor on FRET signal (caspase-9 GFPspark; HEK-293, inhibitor 50 μM pre-treatment, STS 4 h) | FRET efficiency (cathepsin B GFPspark; HEK-293, STS 1 μM 4 h, probe 1 μM 2 h, n=10 cells) [%] | calculated FRET efficiency (caspase-9 GFPspark; [2]) [%] | rise in GFP intensity in ROI after rhodamine photobleaching (caspase-9 GFPspark; [2]) [a.u.]
COC(=O)C[C@H](NC(=O)[C@H](C)NC(=O)[C@@H](NC(=O)OCc1ccccc1)C(C)C)C(=O)CF [Z-VAD-FMK] (Cbz-Val-Ala-Asp(OMe)-CH2F) | completely abolished | less intense fluorescence signal was still retained | abolished |  |  | 
Rhodamine-VAD-fluoromethyl ketone [probe 1] |  |  |  | 37±1 | 35±2 | 75
